Five compounds from patent US20090270391A1, “THIENOPYRIDINE DERIVATIVE, OR QUINOLINE DERIVATIVE, OR QUINAZOLINE DERIVATIVE, HAVING c-MET AUTOPHOSPHORYLATION INHIBITING POTENCY” (Kirin Pharma Kabushiki Kaisha, priority 2005, published 2009) can be followed below.

In test [1] the target is T1, c-Met (Homo sapiens, UniProt P08581). As to the kind of experiment: c-Met autophosphorylation inhibitory activity (general statement).
Target sequence in this assay (P08581 25-1390): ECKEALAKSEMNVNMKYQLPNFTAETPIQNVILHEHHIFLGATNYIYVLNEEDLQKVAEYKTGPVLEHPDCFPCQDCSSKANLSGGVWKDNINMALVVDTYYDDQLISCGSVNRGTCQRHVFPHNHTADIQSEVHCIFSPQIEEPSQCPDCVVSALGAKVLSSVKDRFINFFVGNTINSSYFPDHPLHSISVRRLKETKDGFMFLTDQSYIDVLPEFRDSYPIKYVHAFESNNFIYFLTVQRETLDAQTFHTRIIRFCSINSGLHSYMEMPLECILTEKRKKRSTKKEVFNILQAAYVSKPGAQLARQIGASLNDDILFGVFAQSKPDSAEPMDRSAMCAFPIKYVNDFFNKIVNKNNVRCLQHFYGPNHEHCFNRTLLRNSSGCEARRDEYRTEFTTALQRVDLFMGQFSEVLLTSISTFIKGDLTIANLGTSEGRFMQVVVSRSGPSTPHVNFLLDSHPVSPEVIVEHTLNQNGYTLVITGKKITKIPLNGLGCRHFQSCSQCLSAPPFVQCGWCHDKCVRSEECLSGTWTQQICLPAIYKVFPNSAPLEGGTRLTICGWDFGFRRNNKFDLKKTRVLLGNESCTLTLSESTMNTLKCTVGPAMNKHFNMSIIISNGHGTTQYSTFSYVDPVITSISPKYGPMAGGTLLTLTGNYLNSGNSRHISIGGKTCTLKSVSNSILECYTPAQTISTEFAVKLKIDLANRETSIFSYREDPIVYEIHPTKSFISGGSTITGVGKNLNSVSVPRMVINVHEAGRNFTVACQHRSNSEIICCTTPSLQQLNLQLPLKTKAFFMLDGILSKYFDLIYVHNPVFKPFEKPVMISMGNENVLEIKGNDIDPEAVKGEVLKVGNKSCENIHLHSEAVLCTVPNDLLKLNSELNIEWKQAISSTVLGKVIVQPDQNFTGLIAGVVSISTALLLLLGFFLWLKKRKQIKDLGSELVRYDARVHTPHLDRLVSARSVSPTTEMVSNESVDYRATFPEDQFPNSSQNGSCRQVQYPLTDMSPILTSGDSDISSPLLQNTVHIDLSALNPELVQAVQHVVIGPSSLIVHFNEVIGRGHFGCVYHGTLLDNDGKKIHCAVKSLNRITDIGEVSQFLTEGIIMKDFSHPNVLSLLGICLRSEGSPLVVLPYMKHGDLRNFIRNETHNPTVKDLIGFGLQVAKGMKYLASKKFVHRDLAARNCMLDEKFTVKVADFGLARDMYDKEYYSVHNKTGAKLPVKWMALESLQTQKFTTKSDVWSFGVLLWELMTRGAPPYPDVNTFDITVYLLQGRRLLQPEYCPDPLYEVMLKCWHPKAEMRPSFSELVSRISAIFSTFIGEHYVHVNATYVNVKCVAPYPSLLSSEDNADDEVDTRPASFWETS
The target in the next test is KDR (Homo sapiens, UniProt P35968). As to the kind of experiment: KDR autophosphorylation inhibitory activity (general statement).
Chain of KDR (P35968 20-1356): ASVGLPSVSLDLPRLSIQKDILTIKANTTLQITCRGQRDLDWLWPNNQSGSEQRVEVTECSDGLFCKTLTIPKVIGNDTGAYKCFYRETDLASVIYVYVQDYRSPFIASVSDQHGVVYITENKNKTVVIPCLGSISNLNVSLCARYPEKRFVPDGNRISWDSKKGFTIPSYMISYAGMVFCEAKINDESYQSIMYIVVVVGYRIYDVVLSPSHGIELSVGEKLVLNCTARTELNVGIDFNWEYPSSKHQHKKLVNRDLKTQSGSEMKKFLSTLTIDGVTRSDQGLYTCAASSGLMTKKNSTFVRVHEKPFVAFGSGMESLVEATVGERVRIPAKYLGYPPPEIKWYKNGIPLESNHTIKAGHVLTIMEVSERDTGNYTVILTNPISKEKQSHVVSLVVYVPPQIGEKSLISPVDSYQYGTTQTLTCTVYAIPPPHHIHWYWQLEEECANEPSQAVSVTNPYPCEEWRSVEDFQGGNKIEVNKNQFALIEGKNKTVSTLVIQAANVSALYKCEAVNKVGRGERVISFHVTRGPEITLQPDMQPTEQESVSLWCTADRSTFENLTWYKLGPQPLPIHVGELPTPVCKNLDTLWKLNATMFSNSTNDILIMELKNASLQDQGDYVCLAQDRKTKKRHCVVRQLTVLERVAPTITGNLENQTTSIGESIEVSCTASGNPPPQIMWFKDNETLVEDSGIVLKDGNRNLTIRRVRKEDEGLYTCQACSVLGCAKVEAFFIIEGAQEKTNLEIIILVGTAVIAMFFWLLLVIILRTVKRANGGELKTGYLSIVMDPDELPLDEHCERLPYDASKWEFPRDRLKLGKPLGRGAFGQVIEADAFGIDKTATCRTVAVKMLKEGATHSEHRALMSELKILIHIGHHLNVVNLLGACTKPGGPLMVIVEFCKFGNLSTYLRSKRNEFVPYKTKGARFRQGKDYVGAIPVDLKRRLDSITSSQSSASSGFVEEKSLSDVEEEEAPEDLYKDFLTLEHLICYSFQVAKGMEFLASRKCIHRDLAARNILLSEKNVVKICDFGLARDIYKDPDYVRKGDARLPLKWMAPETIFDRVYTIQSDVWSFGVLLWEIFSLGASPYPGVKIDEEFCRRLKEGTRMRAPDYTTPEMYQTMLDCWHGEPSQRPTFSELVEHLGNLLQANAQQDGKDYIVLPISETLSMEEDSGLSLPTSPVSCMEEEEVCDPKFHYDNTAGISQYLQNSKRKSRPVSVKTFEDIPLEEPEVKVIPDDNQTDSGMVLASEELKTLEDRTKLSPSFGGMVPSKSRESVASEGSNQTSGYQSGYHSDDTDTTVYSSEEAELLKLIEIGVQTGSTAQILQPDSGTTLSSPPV
For test [2], the target named is T1, c-Met. The test can be described thus: Measurement of human c-Met enzyme inhibitory activity (ELISA, Poly Glu:Tyr). The class given is biochemical. Also noted: a part (955 to 1368aa) around human c-Met kinase domain; GST; made in house; host or cells: SF9 insect cells (baculovirus). The conditions noted are these: human c-Met kinase domain (955 to 1368aa), ATP 10 μM. An excerpt: cDNA coding for a part (955 to 1368aa) around human c-Met kinase domain was integrated into a pFastBac vector (Invitrogen) with a GST tag inserted therein, followed by transformation into DH10Bac to give Bacmid DNA which was then introduced into SF9 cells (GIBCO). Infection with a virus liquid was repeated five times, and SF9 cells were then broken, followed by purification using a GSH column to give a c-Met kinase active protein.
Poly Glu: Tyr=4:1 (SIGMA) was coated onto a 96-well immunoplate (442404, NALGE NUNC International K.K.). Kinase buffer (50 mM HEPES (pH 7.5), 25 mM NaCl, 0.01 mM Na3VO4, 0.01% BSA), a test compound, and the kinase protein were added, and the mixture was incubated for 10 min. ATP (10 μM, SIGMA) was then added, and a reaction was allowed to proceed for 10 min. The plate was washed three times with PBST and was reacted with a primary antibody PY-20 (BD-610000, B.D. Bioscience) and a secondary antibody GAM (NA-9310V, Abersham) each at room temperature for one hr. The plate was washed with PBST, color development was then carried out with SUMILON (ML-1120T, Sumitomo Bakelite Co., Ltd.), and phosphorylated tyrosine was quantitatively determined by measuring the absorbance at 450 nm. IC50 was calculated based on a concentration difference curve for the test compound by presuming the absorbance of the wells without the addition of ATP to be 100% inhibition and the absorbance of the wells with the addition of the medium for the test compound and ATP to be 0% inhibition.
Target sequence in this assay (P08581 955-1368): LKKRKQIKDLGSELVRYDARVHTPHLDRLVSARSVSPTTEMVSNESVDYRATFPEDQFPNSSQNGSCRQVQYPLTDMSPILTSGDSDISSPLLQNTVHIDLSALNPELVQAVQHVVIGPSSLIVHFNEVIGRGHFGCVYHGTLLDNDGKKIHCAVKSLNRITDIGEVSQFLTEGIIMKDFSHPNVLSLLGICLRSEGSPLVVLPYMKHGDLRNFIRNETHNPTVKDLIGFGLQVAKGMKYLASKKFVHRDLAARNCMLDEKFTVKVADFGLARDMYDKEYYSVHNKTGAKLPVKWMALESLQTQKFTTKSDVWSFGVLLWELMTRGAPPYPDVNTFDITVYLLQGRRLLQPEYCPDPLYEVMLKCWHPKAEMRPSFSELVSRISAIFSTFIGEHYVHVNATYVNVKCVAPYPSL
A general note: In an ELISA, binding on a coated surface is turned into a signal by an enzyme label.

Test [3] deals with Human gastric cancer cell line MKN 45. The test can be described thus: Tumor growth inhibitory activity against human gastric cancer cell line MKN 45 in nude mice. Type of test: in vivo. The conditions noted are these: oral once a day. As for the experimental part:
Human gastric cancer cell line MKN 45 (available from Riken) was transplanted into nude mice. […] The test compound suspended in 0.5% methylcellulose was orally administered once a day for 9 days.
Only 0.5% methylcellulose was administered to the control group in the same manner as in the test groups. The tumor growth inhibition rate (TGIR) was calculated as follows: The tumor growth inhibition rate (TGIR)=(1−TX/CX)×100 wherein CX represents the volume of tumor at day X for the control group and TX represents the volume of tumor for test compound administration groups, when the tumor volume at the day of the start of the administration was presumed to be 1.

For test [4], the target named is T1, c-Met. As to the kind of experiment: Measurement (2) of inhibitory activity against c-Met autophosphorylation using ELISA method (MKN45 cells). On the set-up: endogenous in cells; host or cells: MKN45. The note with it: c-Met phosphorylation in MKN45 cells, no HGF. Type of test: cell-based. As for the experimental part:
Human gastric cancer cell line MKN45 (available from Riken) was cultured in an RPMI 1640 medium containing 10% fetal calf serum (purchased from GIBCO BRL) within a 5% carbon dioxide incubator until 50 to 90% confluent. The harvested cells were inoculated into wells, containing an RPMI medium containing 0.1% fetal calf serum, in a 96-well flat-bottom plate in an amount of 2×10^4 per well, followed by cultivation at 37° C. overnight. The medium was then replaced by a fresh RPMI medium containing 0.1% fetal calf serum. The test compound dissolved in dimethyl sulfoxide was added to each well, and the cultivation was continued at 37° C. for additional one hr. The medium was removed, the cells were washed with phosphate buffered physiological saline (pH 7.4), and 50 μl of a solubilization buffer (20 mM HEPES (pH 7.4), 150 mM NaCl, 0.2%/0 Triton X-100, 100, 10% glycerol, 5 mM sodium orthovanadylate, 5 mM disodium ethylenediaminetetraacetate, and 2 mM Na4P2O7) was then added thereto. The mixture was shaken at 4° C. for 2 hr to prepare a cell extract.
Separately, phosphate buffered physiological saline (50 μl, pH 7.4) containing 5 μg/ml anti-phospho-tyrosine antibody (PY20; purchased from Transduction Laboratories) was added to a microplate for ELISA (Maxisorp; purchased from NUNC), followed by standing at 4° C. overnight to form a solid phase. After washing of the plate, 300 μl of a blocking solution was added, followed by standing at room temperature for 2 hr to perform blocking. After washing, the whole quantity of the cell extract was transferred, and the plate was then allowed to stand at 4° C. overnight. After washing, an anti-HGF receptor antibody (h-Met (C-12), purchased from Santa Cruz Biotechnology) was allowed to react at room temperature for one hr, and, after washing, a peroxidase-labeled anti-rabbit Ig antibody (purchased from Amersham) was allowed to react at room temperature for one hr. After washing, a chromophoric substrate for peroxidase (purchased from Sumitomo Bakelite Co., Ltd.) was added thereto to initiate a reaction. After a suitable level of color development, a reaction termination solution was added to stop the reaction, and the absorbance at 450 nm was measured with a microplate reader. The c-Met phosphorylation activity for each well was determined by presuming the absorbance without the addition of the test compound to be 100% c-Met phosphorylation activity and the absorbance with the addition of a largely excessive amount of positive control to be 0% c-Met phosphorylation activity. The concentration of the test compound was varied on several levels, the inhibition rate of c-Met-phosphorylation was determined for each case, and the concentration of the test compound necessary for inhibiting 50% of c-Met phosphorylation (IC50) was calculated.
Target sequence in this assay (P08581 25-1390): as the sequence (P08581 25-1390) above

Turning to `COc1cc(Oc2ccnc3cc(OCCCN4CCOCC4)c(OC)cc23)ccc1NC(=S)NC(=O)Cc1ccccc1` [Compound B, N-{2-methoxy-4-[6-methoxy-7-(3-morpholinopropoxy)-4-quinolyl]oxyphenyl}-N′-(2-phenylacetyl)thiourea], at c-Met [1], the “c-Met autophosphorylation inhibitory activity” value is recorded as “high”. Also, the “KDR autophosphorylation inhibitory activity” value on KDR was “low”.
As for `Cn1ccnc1-c1cc2nccc(Oc3ccc(NC(=S)NC(=O)Cc4ccc(F)cc4)cc3Cl)c2s1` [Example 1, N-(3-Chloro-4-{[2-(1-methyl-1H-2-imidazolyl)thieno[3,2-b]pyridin-7-yl]oxy}phenyl)-N-[2-(4-fluorophenyl)-acetyl]thiourea], the IC50 was 0.0032 µM against c-Met [2] and 0.0328 µM on c-Met [4]. Also, the “TGIR (tumor growth inhibition rate)” value in test [3] (9th day) was determined as 63.8%.
Turning to `COc1cc2nccc(Oc3ccc(NC(=O)NC(=O)Cn4ncc5ccccc54)cc3F)c2cc1OC` [Example 14, N-4-[(6,7-Dimethoxy-4-quinolyl)oxy]-3-fluorophenyl-N′-[2-(1H-1-indazolyl)acetyl]urea], the IC50 on c-Met [2] was 0.0125 µM; against c-Met [4], 0.0223 µM. Further, the “TGIR (tumor growth inhibition rate)” value in test [3] (10th day) stood at 42.6%.
With `COc1cc(Oc2ccnc3cc(OC)c(OC)cc23)ccc1NC(=S)NC(=O)Cn1ncc2ccccc21` [Example 15, N-4-[(6,7-Dimethoxy-4-quinolyl)oxy]-2-methoxyphenyl-N′-[2-(1 H-1-indazolyl)acetyl]thiourea], the IC50 against c-Met [2] turned out to be 0.0096 µM; against c-Met [4], 0.0132 µM.
At c-Met [4], `COc1cc2nccc(Oc3ccc(NC(=O)NC(=O)Cn4ccc5ccccc54)cc3F)c2cc1OC` [Example 16, N-4-[(6,7-Dimethoxy-4-quinolyl)oxy]-3-fluorophenyl-N′-[2-(1H-1-indolyl)acetyl]urea] yielded a concentration for half-maximal inhibition (IC50) of 0.0359 µM.

Usually IC50 stands for the midpoint of a concentration-inhibition curve. A lower IC50 goes with greater potency in that assay.
